Source: patent publication EP2650284A1, “Heterocyclic derivatives as metabotropic glutamate receptor modulators” (Merz Pharma GmbH & Co. KGaA, priority 2012, dated 2013)

Experiments:
[1] = biological target: T1, human metabotropic glutamate receptor mGluR5 (Homo sapiens, UniProt P41594); experiment: Cytosolic calcium studies with stably transfected cells (h5CHO), functional assay of mGluR5 receptors; format: cell-based; conditions: for h left shift: h5CHO cells; for EC50: positive modulators, h5CHO cells preincubated with modulator, stimulated by an EC20 concentration of L-glutamate, read-out: hEC50
T1 construct: expressed in transfected cells; host or cells: CHO-K1 (h5CHO), IPTG-inducible
Summary of the method: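 IPTG-induced h5CHO (CHO-K1 expressing human mGluR5) loaded with calcium dye; compounds (0.5% DMSO) added 5 min before agonist. NAM IC50 against L-quisqualate at ~EC80; PAM EC50 with EC20 L-glutamate. FLIPR fluorescence, max-minus-min, % of maximal response, logistic fit.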

mGluR5 receptors = biological target: T2, mGluR5 receptors (Rattus norvegicus, UniProt P31424); experiment: Cytosolic calcium studies with astrocytes (FLIPR), functional assay of mGluR5 receptors; format: cell-based; conditions: for EC50: Table A1, positive modulators, fixed concentration of quisqualate (normally 10-30 nM), read-out: rEC50
T2 construct: Primary astrocyte cultures are prepared from cortices of newborn rats; endogenous in cells; host or cells: primary cortical astrocytes from Sprague-Dawley rat pups (2-4 d old)
Summary of the method: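 Rat cortical primary astrocytes at 14-15 DIV, loaded with Ca-sensitive dye for 2 h at RT, pH 7.3 buffer; FLIPR fluorescence after L-quisqualate (100 nM), antagonists pre-incubated 10 min. PAMs: quisqualate curves ± 10 µM modulator, or modulator curves at fixed 10-30 nM quisqualate. Max-min responses as % control, logistic fit.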

[2] = Table A3 (SAMs / very weak PAMs), agonist EC50 shift with 10 µM modulator or vehicle
[3] = Table A3 (SAMs / very weak PAMs), quisqualate EC50 shift with 10 µM modulator
[4] = Table A1, left shift of agonist EC50, dose response curves in the presence of 10 µM modulator or vehicle
[5] = Table A1, left shift of quisqualate EC50 in the presence and absence of 10 µM modulator

T1 sequence (P41594 21-1212): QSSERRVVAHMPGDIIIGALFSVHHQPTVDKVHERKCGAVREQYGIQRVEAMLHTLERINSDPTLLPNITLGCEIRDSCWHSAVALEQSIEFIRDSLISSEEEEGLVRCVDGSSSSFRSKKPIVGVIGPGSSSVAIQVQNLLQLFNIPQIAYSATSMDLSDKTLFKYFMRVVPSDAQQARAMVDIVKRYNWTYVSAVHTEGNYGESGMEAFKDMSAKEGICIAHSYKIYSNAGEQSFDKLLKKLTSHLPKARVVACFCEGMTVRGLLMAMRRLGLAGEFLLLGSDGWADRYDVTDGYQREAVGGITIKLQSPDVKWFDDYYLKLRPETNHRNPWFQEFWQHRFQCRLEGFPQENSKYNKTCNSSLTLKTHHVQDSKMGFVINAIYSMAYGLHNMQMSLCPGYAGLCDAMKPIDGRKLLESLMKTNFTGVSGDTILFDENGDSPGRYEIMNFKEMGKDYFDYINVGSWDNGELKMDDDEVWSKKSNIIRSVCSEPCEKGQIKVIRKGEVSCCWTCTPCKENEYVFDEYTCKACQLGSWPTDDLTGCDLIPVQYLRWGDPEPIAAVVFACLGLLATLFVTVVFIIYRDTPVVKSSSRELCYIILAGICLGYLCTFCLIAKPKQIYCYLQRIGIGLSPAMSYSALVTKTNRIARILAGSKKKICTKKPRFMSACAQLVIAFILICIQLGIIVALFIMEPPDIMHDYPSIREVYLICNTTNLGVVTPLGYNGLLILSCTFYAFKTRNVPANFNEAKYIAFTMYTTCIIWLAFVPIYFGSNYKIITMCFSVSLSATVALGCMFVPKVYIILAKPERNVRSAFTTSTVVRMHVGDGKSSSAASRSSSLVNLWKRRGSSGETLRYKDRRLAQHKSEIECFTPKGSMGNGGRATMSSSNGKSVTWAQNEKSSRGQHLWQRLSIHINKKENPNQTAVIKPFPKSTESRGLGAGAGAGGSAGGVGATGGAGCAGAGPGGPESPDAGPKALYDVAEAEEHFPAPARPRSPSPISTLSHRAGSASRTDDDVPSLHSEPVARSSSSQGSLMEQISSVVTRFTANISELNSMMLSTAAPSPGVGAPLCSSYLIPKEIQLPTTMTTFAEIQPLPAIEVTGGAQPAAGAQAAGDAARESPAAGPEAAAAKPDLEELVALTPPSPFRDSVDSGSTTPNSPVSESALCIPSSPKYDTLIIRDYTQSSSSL
T2 sequence (P31424 21-1203): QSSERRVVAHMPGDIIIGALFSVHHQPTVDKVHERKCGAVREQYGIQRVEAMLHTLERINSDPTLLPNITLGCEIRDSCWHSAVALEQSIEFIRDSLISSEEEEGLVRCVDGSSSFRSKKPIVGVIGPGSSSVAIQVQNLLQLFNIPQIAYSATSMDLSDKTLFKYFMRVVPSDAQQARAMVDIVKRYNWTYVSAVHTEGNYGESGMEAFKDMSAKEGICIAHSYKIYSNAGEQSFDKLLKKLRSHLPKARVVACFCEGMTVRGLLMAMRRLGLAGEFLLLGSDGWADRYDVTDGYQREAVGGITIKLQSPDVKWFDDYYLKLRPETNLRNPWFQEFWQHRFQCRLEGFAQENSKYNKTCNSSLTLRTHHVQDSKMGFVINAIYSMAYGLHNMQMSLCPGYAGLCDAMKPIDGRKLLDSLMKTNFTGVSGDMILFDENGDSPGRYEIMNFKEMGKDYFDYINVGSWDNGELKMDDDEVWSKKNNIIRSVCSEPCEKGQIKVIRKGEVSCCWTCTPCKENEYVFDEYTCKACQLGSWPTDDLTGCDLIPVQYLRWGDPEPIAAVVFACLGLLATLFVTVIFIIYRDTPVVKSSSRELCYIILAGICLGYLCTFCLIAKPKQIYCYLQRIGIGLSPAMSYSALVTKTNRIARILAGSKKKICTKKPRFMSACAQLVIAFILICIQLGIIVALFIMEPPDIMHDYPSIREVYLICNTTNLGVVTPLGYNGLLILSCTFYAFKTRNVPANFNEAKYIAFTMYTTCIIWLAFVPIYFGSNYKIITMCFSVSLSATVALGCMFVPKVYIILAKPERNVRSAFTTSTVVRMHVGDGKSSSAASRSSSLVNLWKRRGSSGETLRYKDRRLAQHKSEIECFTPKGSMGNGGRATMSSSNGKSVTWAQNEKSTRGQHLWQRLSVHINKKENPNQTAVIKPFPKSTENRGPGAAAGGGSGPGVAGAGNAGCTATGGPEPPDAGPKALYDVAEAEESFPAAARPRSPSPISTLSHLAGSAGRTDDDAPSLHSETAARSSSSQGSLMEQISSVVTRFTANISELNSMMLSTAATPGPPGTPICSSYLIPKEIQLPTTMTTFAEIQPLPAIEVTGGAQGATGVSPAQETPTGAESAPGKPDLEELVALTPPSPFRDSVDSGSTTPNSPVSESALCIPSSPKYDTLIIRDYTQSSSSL

Structure (SMILES) | h left shift [1, 2] | r left shift (mGluR5 receptors; [3]) | h left shift [1, 4] | EC50 ([1]; Table A1) | r left shift (mGluR5 receptors; [5]) | EC50 (mGluR5 receptors)
CCCN1CCO[C@@H]2c3cc(C#Cc4cccc(C)c4)cnc3CC[C@@H]21 (racemic) [Example 21, (rac)-cis-4-Propyl-9-(m-tolylethynyl)-3,4,4a,5,6,10b-hexahydro-2H-[1,4]oxazino[2,3-f]quinoline] | 1.3-fold | 1.9-fold |  |  |  | 
COC(=O)N1CC[C@H]2CCc3ncc(C#Cc4ccccc4)cc3[C@H]21 (racemic) [Example 29, (rac)-cis-Methyl 8-(phenylethynyl)-2,3,3a,4,5,9b-hexahydro-1H-pyrrolo[2,3-f]quinoline-1-carboxylate] | 1.3-fold | 0.8-fold |  |  |  | 
CCCN1CC2(CCCc3ncc(C#Cc4cccc(C)c4)cc32)OC1=O (racemic) [Example 64, (rac)-3-Propyl-3'-(m-tolylethynyl)-7',8'-dihydro-6'H-spiro[oxazolidine-5,5'-quinolin]-2-one] | 1.2-fold | 0.9-fold |  |  |  | 
CCCN1CC2(CCCc3ncc(C#Cc4cccc(F)c4)cc32)OC1=O (racemic) [Example 66, (rac)-3'-((3-Fluorophenyl)ethynyl)-3-propyl-7',8'-dihydro-6'H-spiro[oxazolidine-5,5'-quinolin]-2-one] | 1.6-fold | 1.3-fold |  |  |  | 
COC1CCCc2ncc(C#Cc3ccccc3)cc21 (single isomer, unassigned) [Example 2, 5-Methoxy-3-(phenylethynyl)-5,6,7,8-tetrahydroquinoline] | 2.3-fold | 4.4-fold | 2.3-fold | 20.9 nM | 4.4-fold | 12.5 nM
CCCN1CCO[C@@H]2c3cc(C#Cc4ccccc4)cnc3CC[C@@H]21 (single isomer, unassigned) [Example 17, cis-9-(Phenylethynyl)-4-propyl-3,4,4a,5,6,10b-hexahydro-2H-[1,4]oxazino[2,3-f]quinoline] | 2.3-fold | 3.5-fold | 2.3-fold | 388 nM | 3.5-fold | 67 nM
CC(C)C(=O)N1CCc2ncc(C#Cc3ccccc3)cc2C1 [Example 33, 2-Methyl-1-(3-(phenylethynyl)-7,8-dihydro-1,6-naphthyridin-6(5H)-yl)propan-1-one] | 1.4-fold | 1.3-fold |  |  |  | 
CCOC(=O)N1CCc2ncc(C#Cc3ccccc3)cc2C1 [Example 40, Ethyl 3-(phenylethynyl)-7,8-dihydro-1,6-naphthyridine-6(5H)-carboxylate] | 1.3-fold | 1.6-fold |  |  |  | 
